The source of these data is patent US20210024975A1, “METHODS FOR IDENTIFYING INHIBITORS OF LIPID A DEACYLASE AND […] RELATED TO SAME” (UNIVERSITY OF WASHINGTON, priority 2019, published 2021).

The assay relates to P. gingivalis 33277 mutants. Description: polymixin B sensitivity of P. gingivalis strains. The settings on record: J5-c5 transposon mutant; similar to the wild-type bacterium. In kind it is cell-based, Porphyromonas gingivalis.

Take polymixin B: the “polymixin B sensitivity of J5-c5 mutants” value is “resistance”.
